From article PMC11440500, “A De Novo Metalloenzyme for Cerium Photoredox Catalysis” (Journal of the American Chemical Society, 2024) come the findings set out here.

In this assay the test system is T1, PLZ1.4 (PhotoLanZyme 1.4).
T1 construct: de novo design; single-chain fusion of two TFD subunits via one Gly; active-site W6 and W175 removed, two active-site mutations, eight surface mutations (6x D to N, 2x E to Q); loaded with CeCl3
The assay is described as follows: Michaelis-Menten kinetics of photocatalytic diol cleavage. The note with it: CeCl3-loaded enzyme, visible light, aerobic, aqueous buffer. In kind it is biochemical, synthetic construct.

As usually defined, the Km is the substrate concentration at which the rate is half of its maximum.

`O[C@H](c1ccccc1)[C@H](O)c1ccccc1` [(R,R)-1]: where the note is “(R,R) isomer per Figure 2F”, the Km came to 2.9 ± 0.4 mM. For the compound `OCC(Oc1ccccc1)C(O)c1ccccc1` (centres unmarked) [compound 24, lignin surrogate 24], the Km came to 5.5 ± 1 mM.
